ChEMBL document CHEMBL5465560, “Selectivity Literature for EUbOPEN Chemogenomic Library” (2024)

Experiments:
[1] = test system: Epidermal growth factor receptor (Homo sapiens), P00533 [UNDEFINED MUTATION]; assay: Selectivity interaction (KinomeScan (DiscoverX)) EUB0001079a EGFR; details: at 1 µM
[2] = target: D(1A) dopamine receptor (Homo sapiens, UniProt P21728); assay: Selectivity interaction (GPCR panel (PDSP screen)) EUB0001079a DRD1; details: at 10 µM
[3] = target: T1, Ephrin type-A receptor 6 (Homo sapiens) (UniProt Q9UF33); assay: Selectivity interaction (KinomeScan (DiscoverX)) EUB0001079a EPHA6; details: at 1 µM
T1 sequence (whole entry): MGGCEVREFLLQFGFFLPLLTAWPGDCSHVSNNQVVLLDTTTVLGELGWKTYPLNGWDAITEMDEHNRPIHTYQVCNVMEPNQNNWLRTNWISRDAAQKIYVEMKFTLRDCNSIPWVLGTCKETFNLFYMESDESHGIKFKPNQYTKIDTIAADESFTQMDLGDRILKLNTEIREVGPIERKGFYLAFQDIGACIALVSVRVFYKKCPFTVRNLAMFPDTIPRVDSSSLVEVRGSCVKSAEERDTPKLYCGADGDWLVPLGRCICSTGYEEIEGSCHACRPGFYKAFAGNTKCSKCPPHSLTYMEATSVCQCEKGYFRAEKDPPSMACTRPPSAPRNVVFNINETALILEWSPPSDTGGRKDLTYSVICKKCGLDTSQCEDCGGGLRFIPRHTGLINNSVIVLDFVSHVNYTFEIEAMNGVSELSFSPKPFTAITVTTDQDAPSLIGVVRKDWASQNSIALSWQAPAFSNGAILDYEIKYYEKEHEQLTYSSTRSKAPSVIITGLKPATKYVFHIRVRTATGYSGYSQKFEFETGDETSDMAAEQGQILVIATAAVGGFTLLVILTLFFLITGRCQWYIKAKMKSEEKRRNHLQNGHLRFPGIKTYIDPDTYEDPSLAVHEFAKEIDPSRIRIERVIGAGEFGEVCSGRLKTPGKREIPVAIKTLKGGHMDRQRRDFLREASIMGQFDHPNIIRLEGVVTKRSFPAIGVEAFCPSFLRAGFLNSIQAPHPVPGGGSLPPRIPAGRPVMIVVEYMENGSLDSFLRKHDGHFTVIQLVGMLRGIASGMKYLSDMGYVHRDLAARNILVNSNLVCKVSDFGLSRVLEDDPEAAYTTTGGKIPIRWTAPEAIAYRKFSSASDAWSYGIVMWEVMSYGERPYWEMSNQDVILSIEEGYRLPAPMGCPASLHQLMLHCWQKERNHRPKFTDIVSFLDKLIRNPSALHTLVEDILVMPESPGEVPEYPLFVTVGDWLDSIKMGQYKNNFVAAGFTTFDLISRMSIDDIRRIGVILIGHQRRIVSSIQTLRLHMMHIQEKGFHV

[4] = target: Histone-lysine N-methyltransferase EZH2 (Homo sapiens) (UniProt Q15910); assay: Selectivity interaction (Transferase panel (protein, RNA, and DNA methyltransferases. and EP300 (acetyltransferase))) EUB0000270b EZH2
Sequence of Histone-lysine N-methyltransferase EZH2 (Homo sapiens) (Q15910 whole entry, looked up): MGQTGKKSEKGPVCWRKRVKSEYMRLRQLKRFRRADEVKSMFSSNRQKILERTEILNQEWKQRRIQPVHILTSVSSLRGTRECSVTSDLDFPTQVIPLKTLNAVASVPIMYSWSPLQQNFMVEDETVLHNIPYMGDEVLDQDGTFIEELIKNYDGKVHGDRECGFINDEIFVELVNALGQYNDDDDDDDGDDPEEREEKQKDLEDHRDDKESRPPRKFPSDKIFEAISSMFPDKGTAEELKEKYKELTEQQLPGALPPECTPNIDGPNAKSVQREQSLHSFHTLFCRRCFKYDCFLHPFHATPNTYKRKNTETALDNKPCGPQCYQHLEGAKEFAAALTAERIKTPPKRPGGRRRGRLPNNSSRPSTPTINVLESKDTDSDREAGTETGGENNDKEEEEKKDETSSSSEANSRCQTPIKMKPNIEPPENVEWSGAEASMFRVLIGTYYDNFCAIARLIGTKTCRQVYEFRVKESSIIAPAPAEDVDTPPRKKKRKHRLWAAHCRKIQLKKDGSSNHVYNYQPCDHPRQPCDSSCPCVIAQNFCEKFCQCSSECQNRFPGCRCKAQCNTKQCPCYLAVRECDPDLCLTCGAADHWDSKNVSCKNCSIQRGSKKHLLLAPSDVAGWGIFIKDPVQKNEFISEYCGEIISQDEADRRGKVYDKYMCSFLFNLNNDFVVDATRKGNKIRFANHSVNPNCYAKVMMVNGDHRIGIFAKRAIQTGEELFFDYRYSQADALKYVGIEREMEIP

[5] = test system: Epidermal growth factor receptor (Homo sapiens), P00533 [UNDEFINED MUTATION]; details: at 10 µM
[6] = target: Mitogen-activated protein kinase kinase kinase 11 (Homo sapiens) (UniProt Q16584); assay: Selectivity interaction (KinomeScan (DiscoverX)) EUB0001049a MAP3K11; details: at 1 µM
[7] = target: Serine/threonine-protein kinase WNK1 (Homo sapiens) (UniProt Q9H4A3); assay: Selectivity interaction (KinomeScan (DiscoverX)) EUB0001049a WNK1; details: at 1 µM
[8] = target: MAP kinase-interacting serine/threonine-protein kinase 2 (Homo sapiens, UniProt Q9HBH9)
[9] = target: Calcium/calmodulin-dependent protein kinase type II subunit alpha (Homo sapiens, UniProt Q9UQM7); assay: Selectivity interaction (Kinase panel (literature)) EUB0001199aCl CAMK2A; details: at 1 µM
Sequence of Calcium/calmodulin-dependent protein kinase type II subunit alpha (Q9UQM7 whole entry): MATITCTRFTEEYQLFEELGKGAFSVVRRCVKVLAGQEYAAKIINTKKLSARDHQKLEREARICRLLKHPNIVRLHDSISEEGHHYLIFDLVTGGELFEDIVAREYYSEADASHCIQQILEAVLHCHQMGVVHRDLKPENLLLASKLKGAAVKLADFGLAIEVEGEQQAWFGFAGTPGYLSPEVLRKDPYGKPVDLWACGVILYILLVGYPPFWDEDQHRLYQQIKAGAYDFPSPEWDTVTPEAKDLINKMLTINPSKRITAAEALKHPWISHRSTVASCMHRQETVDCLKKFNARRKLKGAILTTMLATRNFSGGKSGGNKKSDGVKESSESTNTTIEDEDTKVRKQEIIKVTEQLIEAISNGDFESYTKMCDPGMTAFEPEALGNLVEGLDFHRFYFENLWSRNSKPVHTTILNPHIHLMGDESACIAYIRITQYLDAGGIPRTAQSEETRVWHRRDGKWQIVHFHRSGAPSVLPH

[10] = target: T2, Homeodomain-interacting protein kinase 4 (Homo sapiens) (UniProt Q8NE63); assay: Selectivity interaction (SelectScreen profiling (Invitrogen)) EUB0000607a HIPK4; details: at 2 µM
T2 sequence (whole entry): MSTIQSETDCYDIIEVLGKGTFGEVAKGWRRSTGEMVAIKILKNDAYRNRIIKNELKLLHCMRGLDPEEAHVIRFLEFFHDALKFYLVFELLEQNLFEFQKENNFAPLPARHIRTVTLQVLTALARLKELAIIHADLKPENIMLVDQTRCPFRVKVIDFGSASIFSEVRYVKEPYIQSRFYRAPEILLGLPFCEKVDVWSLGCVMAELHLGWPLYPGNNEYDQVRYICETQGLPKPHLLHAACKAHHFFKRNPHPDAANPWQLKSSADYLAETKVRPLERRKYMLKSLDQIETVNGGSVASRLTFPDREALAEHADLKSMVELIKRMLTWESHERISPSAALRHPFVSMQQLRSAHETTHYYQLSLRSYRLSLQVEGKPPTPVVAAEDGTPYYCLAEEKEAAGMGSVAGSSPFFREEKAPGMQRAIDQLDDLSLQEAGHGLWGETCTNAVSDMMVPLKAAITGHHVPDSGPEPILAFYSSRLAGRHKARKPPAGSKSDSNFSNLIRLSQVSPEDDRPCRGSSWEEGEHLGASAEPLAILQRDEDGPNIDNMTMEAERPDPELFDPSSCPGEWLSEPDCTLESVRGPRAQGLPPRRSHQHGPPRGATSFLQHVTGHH

[11] = target: Tyrosine-protein kinase ABL1 (Homo sapiens, UniProt P00519); assay: Selectivity interaction (ActivX KiNativ screen (kinase selectivity in THP-1 cell lysates)) EUB0000639a ABL1; type: subcellular; details: lysate, at 0.2 µM
Sequence of Tyrosine-protein kinase ABL1 (P00519 whole entry): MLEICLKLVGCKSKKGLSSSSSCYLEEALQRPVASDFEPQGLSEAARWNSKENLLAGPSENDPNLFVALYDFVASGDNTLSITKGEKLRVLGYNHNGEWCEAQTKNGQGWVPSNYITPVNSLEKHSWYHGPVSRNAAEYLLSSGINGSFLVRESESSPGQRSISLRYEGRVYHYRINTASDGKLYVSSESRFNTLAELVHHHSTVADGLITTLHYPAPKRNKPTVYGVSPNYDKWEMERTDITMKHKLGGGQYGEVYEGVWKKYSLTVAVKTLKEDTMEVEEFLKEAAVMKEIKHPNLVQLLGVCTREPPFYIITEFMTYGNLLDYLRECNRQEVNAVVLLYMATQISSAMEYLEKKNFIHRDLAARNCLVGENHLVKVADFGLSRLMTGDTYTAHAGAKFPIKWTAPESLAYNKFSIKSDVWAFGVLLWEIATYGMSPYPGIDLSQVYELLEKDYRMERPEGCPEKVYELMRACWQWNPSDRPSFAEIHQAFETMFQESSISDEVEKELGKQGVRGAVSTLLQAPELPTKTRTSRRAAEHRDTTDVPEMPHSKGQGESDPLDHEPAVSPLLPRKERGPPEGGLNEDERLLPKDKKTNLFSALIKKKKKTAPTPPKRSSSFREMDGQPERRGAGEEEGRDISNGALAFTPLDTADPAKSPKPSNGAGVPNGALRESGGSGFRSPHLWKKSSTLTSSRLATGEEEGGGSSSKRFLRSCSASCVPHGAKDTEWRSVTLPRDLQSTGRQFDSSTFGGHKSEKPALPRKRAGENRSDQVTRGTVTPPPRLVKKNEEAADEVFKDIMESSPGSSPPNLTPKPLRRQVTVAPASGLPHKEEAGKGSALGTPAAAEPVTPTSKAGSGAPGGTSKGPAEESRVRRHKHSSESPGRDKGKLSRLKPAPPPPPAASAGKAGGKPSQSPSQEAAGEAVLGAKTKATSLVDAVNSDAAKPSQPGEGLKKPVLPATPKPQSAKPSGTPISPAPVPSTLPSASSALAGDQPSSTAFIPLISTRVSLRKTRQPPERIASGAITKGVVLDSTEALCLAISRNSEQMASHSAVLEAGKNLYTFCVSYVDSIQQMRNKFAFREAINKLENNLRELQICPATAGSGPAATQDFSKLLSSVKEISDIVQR

[12] = target: Non-receptor tyrosine-protein kinase TYK2 (Homo sapiens, UniProt P29597); details: at 10 µM
Sequence of Non-receptor tyrosine-protein kinase TYK2 (P29597 whole entry): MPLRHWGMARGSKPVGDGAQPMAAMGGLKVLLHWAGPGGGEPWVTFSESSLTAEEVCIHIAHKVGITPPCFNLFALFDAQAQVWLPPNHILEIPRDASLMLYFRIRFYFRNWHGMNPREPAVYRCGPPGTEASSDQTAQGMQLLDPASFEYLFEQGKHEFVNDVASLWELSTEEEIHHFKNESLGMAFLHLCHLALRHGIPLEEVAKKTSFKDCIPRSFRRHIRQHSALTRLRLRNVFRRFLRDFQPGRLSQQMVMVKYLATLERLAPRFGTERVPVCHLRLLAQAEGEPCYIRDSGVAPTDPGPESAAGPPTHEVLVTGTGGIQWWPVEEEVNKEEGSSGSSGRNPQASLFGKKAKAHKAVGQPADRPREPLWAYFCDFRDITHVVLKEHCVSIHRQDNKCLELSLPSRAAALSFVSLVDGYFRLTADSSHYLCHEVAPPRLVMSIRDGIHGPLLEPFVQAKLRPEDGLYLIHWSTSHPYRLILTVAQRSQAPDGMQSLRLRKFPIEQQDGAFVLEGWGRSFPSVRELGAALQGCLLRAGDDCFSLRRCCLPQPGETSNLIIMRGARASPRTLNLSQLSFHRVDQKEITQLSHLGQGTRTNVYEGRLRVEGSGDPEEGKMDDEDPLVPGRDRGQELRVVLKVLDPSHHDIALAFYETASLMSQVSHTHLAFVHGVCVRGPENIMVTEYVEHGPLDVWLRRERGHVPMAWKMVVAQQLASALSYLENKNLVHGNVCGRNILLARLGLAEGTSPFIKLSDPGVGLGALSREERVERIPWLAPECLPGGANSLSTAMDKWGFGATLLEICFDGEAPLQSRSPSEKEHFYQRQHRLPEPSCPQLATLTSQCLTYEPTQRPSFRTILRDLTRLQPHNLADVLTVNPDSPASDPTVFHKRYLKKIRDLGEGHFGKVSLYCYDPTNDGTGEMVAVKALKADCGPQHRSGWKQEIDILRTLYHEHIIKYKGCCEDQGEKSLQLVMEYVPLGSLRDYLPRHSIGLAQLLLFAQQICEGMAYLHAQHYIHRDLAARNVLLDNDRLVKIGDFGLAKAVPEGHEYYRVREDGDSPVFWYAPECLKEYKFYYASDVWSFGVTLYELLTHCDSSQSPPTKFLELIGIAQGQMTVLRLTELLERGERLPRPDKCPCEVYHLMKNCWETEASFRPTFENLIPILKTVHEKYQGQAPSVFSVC

[13] = target: Platelet-derived growth factor receptor beta (Homo sapiens, UniProt P09619); assay: Selectivity interaction (Ambit KINOMEscan and KiNATiv profiling in Jurkat cells) EUB0000090b PDGFRB; type: cell-based; details: at 1 µM

Sequence of Epidermal growth factor receptor (Homo sapiens), P00533 [UNDEFINED MUTATION] (P00533 whole entry, looked up, change not shown): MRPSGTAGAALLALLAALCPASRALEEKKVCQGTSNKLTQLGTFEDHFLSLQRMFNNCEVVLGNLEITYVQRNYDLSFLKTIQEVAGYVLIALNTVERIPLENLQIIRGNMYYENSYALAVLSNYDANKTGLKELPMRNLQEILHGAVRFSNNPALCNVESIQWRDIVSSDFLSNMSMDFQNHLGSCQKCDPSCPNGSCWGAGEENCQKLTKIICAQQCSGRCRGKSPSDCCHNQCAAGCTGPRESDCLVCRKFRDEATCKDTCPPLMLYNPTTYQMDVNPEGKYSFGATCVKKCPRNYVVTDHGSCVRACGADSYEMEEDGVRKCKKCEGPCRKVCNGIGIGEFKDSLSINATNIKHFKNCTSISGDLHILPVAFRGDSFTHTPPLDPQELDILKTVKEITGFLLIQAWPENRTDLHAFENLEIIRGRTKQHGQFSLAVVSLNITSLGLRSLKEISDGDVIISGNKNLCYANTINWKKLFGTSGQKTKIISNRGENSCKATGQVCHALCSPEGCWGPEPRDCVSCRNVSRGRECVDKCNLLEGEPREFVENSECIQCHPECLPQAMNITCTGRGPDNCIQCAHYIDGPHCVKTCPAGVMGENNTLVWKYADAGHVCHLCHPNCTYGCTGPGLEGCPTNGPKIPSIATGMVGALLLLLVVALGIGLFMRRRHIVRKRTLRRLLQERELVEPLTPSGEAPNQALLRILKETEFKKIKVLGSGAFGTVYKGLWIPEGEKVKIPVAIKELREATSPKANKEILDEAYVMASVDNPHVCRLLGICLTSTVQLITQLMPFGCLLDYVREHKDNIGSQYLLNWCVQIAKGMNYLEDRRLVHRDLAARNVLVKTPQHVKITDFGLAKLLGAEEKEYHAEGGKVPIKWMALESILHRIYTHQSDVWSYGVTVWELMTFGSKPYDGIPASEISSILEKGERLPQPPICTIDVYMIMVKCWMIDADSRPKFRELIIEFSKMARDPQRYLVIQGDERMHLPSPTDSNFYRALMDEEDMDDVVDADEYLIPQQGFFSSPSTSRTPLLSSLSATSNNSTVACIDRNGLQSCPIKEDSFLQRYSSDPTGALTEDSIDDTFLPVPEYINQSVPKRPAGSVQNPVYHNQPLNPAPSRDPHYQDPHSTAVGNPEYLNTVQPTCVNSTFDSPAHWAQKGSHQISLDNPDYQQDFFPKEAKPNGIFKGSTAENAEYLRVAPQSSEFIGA

Q: For `Nc1cnc(N2CCc3cc(S(=O)(=O)Nc4c(F)cc(Cl)cc4F)cc(N4CCCC4=O)c32)nc1` [TP-020n], which % of control [1] is on record?
A: The % of control was 100%.

Q: What about the % of inhibition [2] of the same molecule?
A: Its % of inhibition is -8.35%.

Q: What about the % of control [3] of the same molecule?
A: The % of control was 98%.

Q: Which % activity ([4]; at 1 µM) does the source give for `Cc1cc(CN)cc(C)c1-c1ncn(C)c1-c1cncn1C` here?
A: The % activity was greater than 90%.

Q: What about the % activity ([4]; at 10 µM) of the same molecule?
A: Its % activity is greater than 80%.

Q: With `Cc1cc([C@@H](C)Nc2ccccc2C(=O)O)c2nc(N3CCOCC3)cc(=O)n2c1` [AZD-6482] as the molecule, how does the % of control [5] read?
A: The % of control was 100%.

Q: Which % of control [6] does the source give for `COc1cc(Nc2nc(C)cc(-c3cnn4nc(OC)ccc34)n2)cc(C(F)(F)F)c1` here?
A: Its % of control is 79%.

Q: What about the % of control [7] of the same molecule?
A: The % of control was 66%.

Q: How did the IC50 [8] turn out when `CCc1cccc(CC)c1NC(=O)c1nn(C)c2c1CCc1cnc(Nc3ccc(C(=O)NC4CCN(C)CC4)cc3OC(F)(F)F)nc1-2` was run?
A: Its IC50 is greater than 10 µM.

Q: For `CN1Cc2nccc(-c3cn(C)nc3-c3ccc(F)cc3)c2C1=O`, which % of inhibition [9] is on record?
A: Its % of inhibition is 10%.

Q: With `CNC(=O)Nc1ccc(-c2nc(N3CC4CCC(C3)O4)c3cnn(C4CCC5(CC4)OCCO5)c3n2)cc1` as the molecule, how does the % of inhibition [10] read?
A: Its % of inhibition is 7%.

Q: For `CC[C@@H]1[C@H](F)C(=O)N[C@@H]1COc1nccc2cc(C(N)=O)c(OC)cc12` [ZIMLOVISERTIB], which % of inhibition [11] is on record?
A: Its % of inhibition is -42.6%.

Q: How did the % of control [12] turn out when `CCN(CC)CCCCNc1ncc2cc(-c3cc(OC)cc(OC)c3)c(NC(=O)NC(C)(C)C)nc2n1` was run?
A: Its % of control is 100%.

Q: For `CN(C)C/C=C/C(=O)Nc1ccc(C(=O)N2CCCC(Nc3ncc(Cl)c(-c4c[nH]c5ccccc45)n3)C2)cc1` (centres undefined), which % of control [13] is on record?
A: The % of control was 76%.
